Here are results for 3 molecules from patent publication US9492368B2, “External preparation for skin” (HAYASHIBARA CO., LTD., priority 2011, dated 2016).

Marks after values point to notes of the source that are not given here.

Data set [1] has as its system involucrin (INV). Briefly: Real-time PCR gene expression in NHEK cells: involucrin. The class given is cell-based, human. As to conditions: 1 μM, seven days, relative to control = 1.00. The procedure: Since glucosyladenosines were confirmed in Experiment 5 to have an action of enhancing the differentiation of keratinocytes effective for skin improvement, a test for examining the change of the expression level of a molecular marker gene of keratinocytes, as an index, was performed as follows using a real-time PCR analysis method to examine the above action in more detail. The expression level of a ceramide-synthesis-related gene was also studied to examine the influence of glucosyladenosines on ceramide synthesis that had been known to have an important role in moisturizing the skin and barrier function of the skin and deemed to be effective for skin improvement. As genes for analysis, profilaggrin (PFG: a later differentiation marker) and involucrin (INV: an early differentiation marker) as differentiation markers of keratinocytes and β-glucocerebrosidase (GCase) and sphingomyelinase (SMase) as ceramide-synthesis-related enzymes were selected, and a gene for cyclophilin B (CypB) as an internal standard upon practicing PCR reaction was used (see FIG. 7). NHEK cells were inoculated to 6-well plate coated with collagen in an amount of 8×10^4 cells/1.5 ml/well, cultured with EpiLife medium, and cultured at 37° C. for two days under a 5 v/v % CO2 condition. Thereafter, the culture medium was removed, and the resulting cells were added with a fresh EpiLife medium containing 5′-glucosyladenosine, 3′-glucosyladenosine, or adenosine in a volume of 1.5 ml/well (giving a final concentration of 1 μM of any one of glucosyladenosines and adenosine), and cultured for seven days while replacing the medium with a fresh one containing any one of glucosyladenosines and adenosine in a volume of 1.5 ml/well every other day. After completion of the culture, each well was washed twice with PBS(K−), followed by adding 0.2 ml/well of 0.025% by mass of trypsin/EDTA solution to the resulting cells and allowing the cells to stand at an ambient temperature for five minutes to detach them from the plates. […]
Background: Real-time PCR tracks product formation cycle by cycle.

A short description of data set [2]: Solubility of glucosyladenosines in water (maximum dissolved concentration, HPLC). Type of data set: physicochemical. The method, then: As a basic property, the solubilities in water of the glucosyladenosines of the present invention were compared with that of adenosine. The 5′-glucosyladenosine prepared in Experiment 1-2 and the 3′-glucosyladenosine prepared in Experiment 2 were determined for solubility in water, and they were compared with that of adenosine. One hundred milligrams of 5′-glucosyladenosine or 3′-glucosyladenosine (these compounds may be collectively called glucosyladenosines, hereinafter) was dissolved in 500 μl of pure water at an ambient temperature (25° C.). While, five milligrams of adenosine was dissolved in 500 μl of pure water at an ambient temperature (25° C.). […] The filtrate was fed to HPLC under the following conditions, followed by determining the respective contents of glucosyladenosines and adenosine based on the peak areas appeared on a chromatogram by an ultraviolet detector, and calculating their concentrations as maximum dissolved concentrations at an ambient temperature (25° C.). The same samples were allowed to stand at a 4° C. cold room for one month and centrifuged, followed by quantifying the contents of glucosyladenosines and adenosine in the resulting supernatants similarly as above to determine their maximum dissolved concentrations at 4° C.
<Conditions for HPLC Analysis>
Apparatus: SHIMADZU UV-VIS DETECTOR SPD-10AV (a detector), LC-10AT (a pump), C-R8A (a recorder), and SIL-20AC (an autosampler);
Mobile phase: (0.1 v/v % aqueous acetic acid solution)/(methanol)=96/4 (v/v),
Detection wavelength: 260 nm,
Injection volume: 20 μl, and
Column temperature: 40° C.

For `Nc1ncnc2c1ncn2[C@@H]1O[C@H](CO)[C@@H](O[C@H]2O[C@H](CO)[C@@H](O)[C@H](O)[C@H]2O)[C@H]1O` [3′-Glucosyladenosine, α-D-glucopyranosyl-(1→3′)-adenosine], the “Gene expression level INV” value in data set [1] was 1.52*. Also, the Maximum dissolved concentration came to 2 w/v % in data set [2] (4° C., one month) and 2 w/v % in data set [2] (25° C., one day).
Consider `Nc1ncnc2c1ncn2[C@@H]1O[C@H](CO[C@H]2O[C@H](CO)[C@@H](O)[C@H](O)[C@H]2O)[C@@H](O)[C@H]1O` [5′-Glucosyladenosine, α-D-glucopyranosyl-(1→5′)-adenosine], for which, in data set [1], the “Gene expression level INV” value is listed as 1.66**. In addition, the Maximum dissolved concentration in data set [2] (4° C., one month) is > 15.7 w/v %; in data set [2] (25° C., one day) it was > 16.1 w/v %.
For the molecule `Nc1ncnc2c1ncn2[C@@H]1O[C@H](CO)[C@@H](O)[C@H]1O` [Adenosine, reference compound], the “Gene expression level INV” value in data set [1] is listed as 1.15. Also, the Maximum dissolved concentration in data set [2] (4° C., one month) was 0.4 w/v %; in data set [2] (25° C., one day) it was 0.8 w/v %.
